Source: patent publication US20070264319A1, “Transdermal Antiemesis Delivery System, Method and Composition Therefor” (priority 2004, published 2007)
Structures can show the parent of a compound that is named as a salt.

Assays:
[1] = water and normal saline at 20° C.; cited from earlier work
[2] = Solubility of granisetron base in penetration enhancers; format: physicochemical; settings: thermodynamic from solid
Method: The incorporation of granisetron base in various penetration enhancers and solvents was determined by incrementally adding small amounts of the drug to about 100 ml of liquid penetration enhancer, and agitating the liquid mixture until the drug was no longer incorporated (i.e., saturation) to provide an apparently saturated liquid mixture at an ambient room temperature in the range of about 20 to about 25° C. Each of the saturated liquid mixtures was agitated by inverting for about 24 hours at ambient room temperature, the solution was centrifuged and its supernatant was diluted in HPLC mobile phase and assayed by the HPLC method as described in Example 2.

[3] = typical oral dose of about 1 to about 2 mg twice daily; cited from earlier work

solubility at 24 h ([2]; oil or lipid, in Isopropyl myristate, about 20 to about 25° C.) [µg/mL]	solubility at 24 h ([2]; organic solvent or mixture, in BRIJ ® 30, about 20 to about 25° C.) [µg/mL]	solubility at 24 h ([2]; organic solvent or mixture, in DDAIP (free base), about 20 to about 25° C.) [µg/mL]	solubility at 24 h ([2]; organic solvent or mixture, in DGME (transcutol), about 20 to about 25° C.) [µg/mL]	solubility at 24 h ([2]; organic solvent or mixture, in Limonene, about 20 to about 25° C.) [µg/mL]	solubility at 24 h ([2]; organic solvent or mixture, in NMP, about 20 to about 25° C.) [µg/mL]	solubility at 24 h ([2]; organic solvent or mixture, in PEG-400, ambient room temperature about 20 to about 25° C.) [µg/mL]	solubility at 24 h ([2]; organic solvent or mixture, in Propylene glycol, about 20 to about 25° C.) [µg/mL]	solubility at 24 h ([2]; organic solvent or mixture, in SPAN ® 20, about 20 to about 25° C.) [µg/mL]	SMILES	solubility [1]	elimination half-life [3]
									CN1C2CCCC1CC(NC(=O)c1nn(C)c3ccccc13)C2 (centres unmarked) [Granisetron hydrochloride]	soluble in water and normal saline	
5.46	41.2	7.17	86.6	8.59	196	45.7	31.7	32.9	CN1C2CCCC1CC(NC(=O)c1nn(C)c3ccccc13)C2 (centres unmarked) [Granisetron]		about 7 hours
